According to doi:10.1101/2022.12.30.522309v1 (biorxiv, 2022):

Target: T1, human FFA2R (Homo sapiens, UniProt O15552)
T1 sequence (O15552 1-330): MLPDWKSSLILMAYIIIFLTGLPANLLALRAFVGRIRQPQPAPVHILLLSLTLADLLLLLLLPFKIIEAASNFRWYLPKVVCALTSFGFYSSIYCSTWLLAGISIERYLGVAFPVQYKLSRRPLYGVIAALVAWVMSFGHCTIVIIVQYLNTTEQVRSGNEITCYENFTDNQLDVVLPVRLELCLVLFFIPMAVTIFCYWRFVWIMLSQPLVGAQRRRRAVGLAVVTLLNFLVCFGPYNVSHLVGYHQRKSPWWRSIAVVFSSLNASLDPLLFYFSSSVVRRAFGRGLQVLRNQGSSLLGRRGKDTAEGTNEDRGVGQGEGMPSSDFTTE
Test: inhibition of forskolin-induced cAMP, LANCE Ultra TR-FRET, HEK293
Assay type: cell-based

## CC(=O)CC(=O)O [acetoacetate]
  EC50: 1240 µM
